Experimental data taken from patent US12403114B2, “Cannabinoid acid ester compositions and uses thereof” (EPM (IP), INC., priority 2019, dated 2025).

Test system: diet-induced obesity (DIO)
Experiment: Diet-induced obese (DIO) mice on high-fat diet, metabolic profile
Assay type: in vivo, C57Bl/6 mice
Description: The experimental protocol used was approved by the Institutional Animal Care and Use Committee of the Hebrew University, which is an AAALAC International accredited institute. Male 6-week-old C57Bl/6 mice were obtained from Harlan Laboratories. Mice were maintained under a 12-h light/dark cycle and fed ad libitum. To generate diet-induced obesity, the mice were fed either a high-fat diet (HFD) (60% of calories from fat, 20% from protein, and 20% from carbohydrates; Research Diet, D12492) or a standard laboratory diet (STD, 14% fat, 24% protein, 62% carbohydrates; NIH-31 rodent diet) for 14 weeks.
HFD-fed obese mice received vehicle (1% Tween80, 4% DMSO, 95% Saline) or CBDA-ME daily for 28 days by intraperitoneal (ip) injections of 40 mg/kg. Age-matched control mice on STD received vehicle daily. Body weight and food intake were monitored daily. Total body fat and lean masses were determined by EchoMRI-100H™ (Echo Medical Systems LLC, Houston, Tex., USA). 24 h urine was collected one week before euthanasia using mouse metabolic cages (CCS2000 Chiller System, Hatteras Instruments, NC, USA). At weeks 20, mice were euthanized by a cervical dislocation under deep anesthesia, the kidneys, liver, fat pads, and muscles were removed and weighed, and samples were either snap-frozen or fixed in buffered 4% formalin. Trunk blood was collected for determining the biochemical parameters.
The experimental protocol used Metabolic profile of the mice was assessed by using the Promethion High-Definition Behavioral Phenotyping System (Sable Instruments, Inc., Las Vegas, Nev., USA). Data acquisition and instrument control were performed using MetaScreen software version 2.2.18.0, and the obtained raw data were processed using ExpeData version 1.8.4 using an analysis script detailing all aspects of data transformation. Mice with free access to food and water were subjected to a standard 12 h light/12 h dark cycle, which consisted of a 48 h acclimation period followed by 24 h of sampling. Respiratory gases were measured by using the GA-3 gas analyzer (Sable Systems, Inc., Las Vegas, Nev., USA) using a pull-mode, negative-pressure system. Air flow was measured and controlled by FR-8 (Sable Systems, Inc., Las Vegas, Nev., USA), with a set flow rate of 2000 mL/min. Water vapor was continuously measured and its dilution effect on O2 and CO2 was mathematically compensated. Effective mass was calculated by [body mass]^0.75. Fat oxidation (FO) and carbohydrate oxidation (CHO) were calculated as FO=1.69×VO2−1.69×VCO2 and CHO=4.57×VCO2−3.23×VO2 and expressed as g/d/kg^eff.Mass.
Locomotor activity was quantified by the number of disruptions of infrared XYZ beam arrays with a beam spacing of 0.25 cm in the Promethion High-Definition Behavioral Phenotyping System (Sable Instruments, Inc., Las Vegas, Nev., USA).
Mice that fasted overnight were injected with glucose (1.5 g/kg, ip), followed by a tail blood collection at 0, 15, 30, 45, 60, 90, and 120 minutes. Blood glucose levels were determined using the Elite glucometer (Bayer, Pittsburgh, Pa.).
Serum and urine levels of creatinine as well as serum levels of cholesterol, triglycerides (TG), high-density lipoprotein (HDL), low-density lipoprotein (LDL), alanine aminotransferase (ALT), aspartate aminotransferase (AST), and alkaline phosphatase (ALP) were determined using the Cobas C-111 chemistry analyzer (Roche, Switzerland) […]. Creatinine clearance was calculated using urine and serum creatinine levels (CCr mL/h=Urine creatinine mg/dL×Urine volume/Serum creatinine mg/dL×24 hrs). Fasting blood glucose was measured using the Elite glucometer (Bayer, Pittsburgh, Pa.).
Liver tissues were extracted as described previously (Tam, J., et al., Cell Metab, 2012. 16(2): p. 167-79) and its triglyceride content was determined using the EnzyChrom™ Triglyceride Assay Kit (BioAssay Systems). […]

[1] = HFD mice, 40 mg/kg/d ip for 28 days
[2] = HFD mice, 40 mg/kg/d ip for 28 days (FIG. 30)
[3] = obesity related hepatocellular injury (FIG. 28)

In the case of `C=C(C)[C@@H]1CCC(C)=CC1c1c(O)cc(CCCCC)c(C(=O)OC)c1O` (stereo partly shown) [EPM-301, cannabidiolic acid methyl ester], the HDL-cholesterol [1] is reported as “without changing”, the LDL-cholesterol [1] is reported as “reduced” and the “overweight (body weight)” value (HFD mice, 40 mg/kg/d ip for 28 days (FIG. 23A)) is reported as “significantly reduced”. The “adiposity (fat mass)” value (HFD mice, 40 mg/kg/d ip for 28 days (FIG. 23B)) was “significantly reduced”, the lean body mass (HFD mice, 40 mg/kg/d ip for 28 days (FIG. 23C)) was “without affecting” and the leptin levels (HFD mice, 40 mg/kg/d ip for 28 days (FIG. 23D)) was “reduction”. For the same compound, the total ambulatory activity (HFD mice, 40 mg/kg/d ip for 28 days (FIG. 25B)) was “without changing”, the “HFD-induced hypertriglyceridemia (serum triglycerides)” value (HFD mice, 40 mg/kg/d ip for 28 days (FIG. 26A)) was “significantly reduced” and the “HFD-induced hypercholesterinemia (serum cholesterol)” value (HFD mice, 40 mg/kg/d ip for 28 days (FIG. 26B)) was “significantly reduced”. The “ratio between HDL to LDL” value (HFD mice, 40 mg/kg/d ip for 28 days (FIG. 26C)) was “Increased”, the fasting glucose levels (HFD mice, 40 mg/kg/d ip for 28 days (FIG. 27A)) was “no change” and the “HFD-induced hepatic steatosis: elevated hepatic triglyceride levels” value (HFD mice, 40 mg/kg/d ip for 28 days (FIG. 29A)) was “completely attenuated”. For the same compound, the “HFD-induced hepatic steatosis: increased fat vacuoles in the liver” value (HFD mice, 40 mg/kg/d ip for 28 days (FIG. 29B)) was “completely attenuated”, the “HFD-induced kidney hypofiltration (creatinine clearance)” value [2] was “completely normalized” and the “reduction in urine excretion-to-water consumption ratio” value [2] was “completely normalized”. For the same compound, the “glucose intolerance (ip glucose tolerance test)” value (glucose 1.5 g/kg ip after overnight fast (FIG. 27B-27D)) was “significant reduction”, the “utilization of fat (fat oxidation)” value (indirect calorimetry, similar to lean mice on STD (FIG. 24A)) was “downregulate” and the carbohydrate oxidation (indirect calorimetry, similar to lean mice on STD (FIG. 24B)) was “upregulate”. For the same compound, the “serum levels of ALP” value [3] was “reduction”, the “serum levels of ALT” value [3] was “reduction” and the “serum levels of AST” value [3] was “reduction”. The “ability to run on a wheel” value (similar to STD-fed animals (FIG. 25A)) was “increased ability”.
